Entries after “also recorded” stand apart in the source; their conditions may differ.
Assays:
SF-268 = assay: NCI60 cell line response to SA, SF-268; type: cell-based, human; conditions: SF-268, doubling time 33.1 hours
SF-295 cells = assay: XTT cell proliferation assay, SF-295; type: cell-based, human; conditions: 48 hours
Method: (§1) XTT Cell Proliferation Assay: Cells were seeded into 96-well plates at a density of 2,000 cells/well and allowed to reattach overnight. Cells were treated with SA, synthetic analogs, camptothecin (NCI Chemotherapeutics Repository, Md., USA), or DMSO control at the indicated concentrations continuously for 48 hours followed by assay in the 96-well plate for relative viable cell number using the dye […] (XTT) and a Wallac-Victor 2 plate reader (Perkin-Elmer, Waltham, Mass., USA). Absorbance was determined at 450 nm with 650 nm as a reference reading. Primary astrocytes were additionally assayed at a 96 hour time point.

MPNST T265 cells = assay: XTT cell proliferation assay, T265; type: cell-based, human
Method: as §1
Cell lines and culture: Human MPNST cell lines (STS26T and T265) were obtained from the Pediatric Oncology Branch, NCI (Bethesda, Md., USA).

MPNST K14553 cells = assay: XTT cell proliferation assay, K14553; type: cell-based, mouse
Method: Establishment of NPcis MPNST cell lines: Mice were euthanized by CO2 asphyxiation and tumors were dissected. The tumor volume was measured. The tumor was then cut in half, and ½ fixed in 4% PFA. The other half was rinsed, then cut into 24 pieces of approximately equal size. Each piece was diced with a razor blade and placed in 1 well of a 24 well plate, along with 625 μL of Triple Express (Gibco, Grand Island, N.Y., USA) and 5 μL of recombinant DNAse (Roche, Indianapolis, Ind., USA). Tumors were triturated, then incubated at 37° C. in a 5% CO2 incubator for 2-5 hours, with an additional trituration halfway through incubation time. At the end of the incubation, tumor pieces were triturated again, and suspended cells were transferred to 1.5 mL eppendorf tubes. […] Both plates were monitored for cell growth, grown up to 10 cm plates, and frozen down in 10% DMSO. […]
as §1, with “Absorbance was determined at 450 nm with 650 nm as a reference reading. Primary astrocytes were additionally assayed at a 96 hour time point.” left out

Q: Which results are given for `CC(C)=CCC/C(C)=C/Cc1c(O)cc(/C=C/c2cc(O)c3c(c2)C[C@@H]2C(C)(C)[C@H](O)[C@H](O)C[C@@]2(C)O3)cc1O` [SA, Schweinfurthin A]?
A: logGI50 (SF-268): −5.62; inhibition of proliferation (percent viability versus control) (SF-295 cells): sensitive; also recorded: inhibited both the KR158 and SF-295 cell lines in a dose dependent manner; inhibition of proliferation (percent viability versus control) (MPNST T265 cells): potent inhibition of cell proliferation; also recorded: sensitive; inhibition of proliferation (percent viability versus control) (MPNST K14553 cells): dose dependent inhibition of proliferation; also recorded: sensitive

Source: US8686016B2, “Schweinfurthins and uses thereof” (The United States of America, as represented by the …, priority 2009, dated 2014)
